Assay: xn = mol fraction of the nth substance listed
Details: 101 kPa, Liquid; for viscosity: Concentric cylinders viscometry; for mass density: Vibrating tube method

COC(C)(C)C [2-methoxy-2-methylpropane] + CCCCCCO
Details	mass density, 293.15 K [kg/m3]	mass density, 298.15 K [kg/m3]	mass density, 303.15 K [kg/m3]	mass density, 308.15 K [kg/m3]	viscosity, 293.15 K [mPa·s]	viscosity, 298.15 K [mPa·s]	viscosity, 303.15 K [mPa·s]	viscosity, 308.15 K [mPa·s]
x1 = 0.0103	818.26	814.71	811.1	807.46	5.223	4.46	3.832	3.31
x1 = 0.0204	817.68	814.12	810.49	806.85	5.039	4.314	3.714	3.214
x1 = 0.0304	817.11	813.53	809.9	806.24	4.87	4.175	3.6	3.12
x1 = 0.0408	816.51	812.92	809.27	805.6	4.696	4.036	3.486	3.026
x1 = 0.0495	816	812.4	808.75	805.07	4.562	3.925	3.395	2.951
x1 = 0.0625	815.23	811.62	807.96	804.26	4.361	3.761	3.259	2.839
x1 = 0.0705	814.74	811.12	807.44	803.74	4.252	3.67	3.185	2.779
x1 = 0.0799	814.17	810.54	806.85	803.14	4.113	3.555	3.09	2.699
x1 = 0.0912	813.49	809.83	806.14	802.42	3.959	3.433	2.991	2.621
x1 = 0.0994	813.01	809.36	805.66	801.92	3.852	3.343	2.913	2.549
x1 = 0.1508	809.87	806.15	802.39	798.59	3.253	2.842	2.493	2.198
x1 = 0.205	806.42	802.7	798.86	795	2.733	2.44	2.173	1.892
x1 = 0.2579	802.99	799.15	795.26	791.32	2.318	2.067	1.848	1.634
x1 = 0.3	800.17	796.26	792.3	788.3	2.047	1.828	1.636	1.468
x1 = 0.3574	796.2	792.23	788.18	784.11	1.724	1.56	1.392	1.257
x1 = 0.4012	793.09	789.05	784.94	780.8	1.53	1.368	1.239	1.122
x1 = 0.4501	789.54	785.43	781.24	777.03	1.324	1.197	1.09	0.9929
x1 = 0.5028	785.58	781.39	777.12	772.81	1.145	1.045	0.9538	0.8711
x1 = 0.5637	780.83	776.53	772.16	767.75	0.9727	0.8921	0.8183	0.7502
x1 = 0.598	778.11	773.75	769.31	764.84	0.8885	0.8156	0.7488	0.6862
x1 = 0.6508	773.76	769.32	764.78	760.21	0.7769	0.7149	0.6592	0.6063
x1 = 0.7	769.62	765.05	760.44	755.77	0.6805	0.6305	0.5829	0.5443
x1 = 0.7493	765.32	760.67	755.96	751.19	0.6088	0.5658	0.523	0.481
x1 = 0.7994	760.79	756.02	751.14	746.31	0.5397	0.5033	0.4676	0.4306
x1 = 0.8514	755.91	751.04	746.09	741.09	0.4782	0.4484	0.4172	0.389
x1 = 0.903	750.84	745.85	740.79	735.68	0.424	0.397	0.3679	0.3464
x1 = 0.9095	750.2	745.2	740.12	735	0.418	0.3923	0.3635	0.3436
x1 = 0.9204	749.1	744.07	738.99	733.83	0.4077	0.3825	0.3535	0.3351
x1 = 0.9294	748.16	743.14	738	732.83	0.3999	0.3756	0.3485	0.3282
x1 = 0.9397	747.1	742.04	736.89	731.69	0.3904	0.3661	0.3396	0.3202
x1 = 0.9495	746.08	741.01	735.83	730.61	0.382	0.3603	0.3326	0.3124
x1 = 0.9589	745.09	739.99	734.79	729.54	0.374	0.3542	0.3253	0.3083
x1 = 0.969	744.04	738.91	733.68	728.41	0.3661	0.3441	0.3206	0.3023
x1 = 0.9791	742.95	737.79	732.55	727.25	0.3582	0.337	0.3139	0.2969
x1 = 0.9899	741.78	736.6	731.33	726.01	0.3508	0.3303	0.3069	0.2898
